Laboratory results reported in ChEMBL document CHEMBL1150977, “A quantitative analysis of kinase inhibitor selectivity” (Nat Biotechnol, 2008).

What was measured:
[1] = target: T1, Mitogen-activated protein kinase 15 (Homo sapiens, UniProt Q8TD08)
T1 sequence (Q8TD08 whole entry): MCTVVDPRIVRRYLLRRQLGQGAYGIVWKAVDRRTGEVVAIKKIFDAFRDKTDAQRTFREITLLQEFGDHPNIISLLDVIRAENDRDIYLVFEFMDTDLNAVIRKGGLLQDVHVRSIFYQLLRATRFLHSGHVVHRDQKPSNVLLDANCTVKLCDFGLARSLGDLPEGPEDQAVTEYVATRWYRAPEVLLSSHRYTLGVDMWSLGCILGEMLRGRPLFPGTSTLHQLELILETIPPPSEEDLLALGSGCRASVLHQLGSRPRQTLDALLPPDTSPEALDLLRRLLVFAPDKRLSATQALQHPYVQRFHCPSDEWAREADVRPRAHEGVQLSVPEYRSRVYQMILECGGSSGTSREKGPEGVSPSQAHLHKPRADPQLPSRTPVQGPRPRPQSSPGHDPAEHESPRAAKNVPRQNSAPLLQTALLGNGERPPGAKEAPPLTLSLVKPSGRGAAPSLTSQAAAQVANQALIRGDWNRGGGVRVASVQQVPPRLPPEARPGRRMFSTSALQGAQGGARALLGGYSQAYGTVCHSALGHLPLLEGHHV

[2] = target: Mitogen-activated protein kinase kinase kinase kinase 5 (Homo sapiens, UniProt Q9Y4K4)
[3] = target: T2, cAMP-dependent protein kinase catalytic subunit PRKX (Homo sapiens, UniProt P51817)
T2 sequence (P51817 whole entry): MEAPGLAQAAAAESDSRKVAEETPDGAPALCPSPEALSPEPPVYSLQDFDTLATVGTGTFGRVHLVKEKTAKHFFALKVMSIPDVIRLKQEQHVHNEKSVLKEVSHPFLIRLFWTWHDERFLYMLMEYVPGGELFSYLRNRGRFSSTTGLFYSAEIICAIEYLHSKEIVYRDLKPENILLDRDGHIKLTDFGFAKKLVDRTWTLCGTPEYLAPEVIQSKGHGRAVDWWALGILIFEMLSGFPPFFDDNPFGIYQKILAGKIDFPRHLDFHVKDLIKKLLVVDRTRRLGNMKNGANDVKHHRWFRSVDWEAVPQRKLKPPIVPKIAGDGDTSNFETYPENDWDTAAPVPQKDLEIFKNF

[4] = target: Serine/threonine-protein kinase PAK 4 (Homo sapiens, UniProt O96013)
[5] = target: Tyrosine-protein kinase HCK (Homo sapiens, UniProt P08631)
[6] = target: Casein kinase II subunit alpha (Homo sapiens, UniProt P68400)
[7] = target: MAP kinase-activated protein kinase 2 (Homo sapiens, UniProt P49137)
Ephrin type-B receptor 3 = target: T3, Ephrin type-B receptor 3 (Homo sapiens, UniProt P54753)
T3 sequence (P54753 whole entry): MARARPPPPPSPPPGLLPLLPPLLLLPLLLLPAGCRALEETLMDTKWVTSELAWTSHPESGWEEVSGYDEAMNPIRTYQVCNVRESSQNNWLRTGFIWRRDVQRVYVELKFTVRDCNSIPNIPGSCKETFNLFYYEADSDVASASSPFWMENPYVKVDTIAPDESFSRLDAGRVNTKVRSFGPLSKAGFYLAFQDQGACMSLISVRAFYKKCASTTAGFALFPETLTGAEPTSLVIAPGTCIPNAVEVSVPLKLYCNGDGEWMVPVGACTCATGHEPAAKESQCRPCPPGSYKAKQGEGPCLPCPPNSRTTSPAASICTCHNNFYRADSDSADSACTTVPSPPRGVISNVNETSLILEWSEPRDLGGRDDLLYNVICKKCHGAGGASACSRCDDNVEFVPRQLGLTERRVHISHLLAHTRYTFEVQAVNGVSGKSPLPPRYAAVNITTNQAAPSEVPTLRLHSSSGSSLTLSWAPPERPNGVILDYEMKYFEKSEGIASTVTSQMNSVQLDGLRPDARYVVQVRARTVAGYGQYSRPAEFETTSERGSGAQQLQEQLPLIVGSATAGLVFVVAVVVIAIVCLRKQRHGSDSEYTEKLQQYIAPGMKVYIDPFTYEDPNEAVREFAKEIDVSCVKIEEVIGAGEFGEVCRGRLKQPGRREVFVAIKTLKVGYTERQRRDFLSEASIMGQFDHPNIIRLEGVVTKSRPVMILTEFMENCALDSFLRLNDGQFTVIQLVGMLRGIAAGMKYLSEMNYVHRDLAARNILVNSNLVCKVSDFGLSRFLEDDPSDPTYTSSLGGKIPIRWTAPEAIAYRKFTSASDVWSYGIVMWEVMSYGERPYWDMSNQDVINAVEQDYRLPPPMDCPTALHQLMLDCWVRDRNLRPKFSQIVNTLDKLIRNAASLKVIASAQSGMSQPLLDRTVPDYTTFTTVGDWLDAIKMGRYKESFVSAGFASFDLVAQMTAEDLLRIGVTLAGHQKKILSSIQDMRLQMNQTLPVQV

[8] = target: Dual specificity protein kinase CLK4 (Homo sapiens, UniProt Q9HAZ1)
[9] = target: Protein-tyrosine kinase 6 (Homo sapiens, UniProt Q13882)
[10] = target: Tyrosine-protein kinase Fyn (Homo sapiens, UniProt P06241)
[11] = target: BMP-2-inducible protein kinase (Homo sapiens, UniProt Q9NSY1)
[12] = target: Serine/threonine-protein kinase MRCK alpha (Homo sapiens, UniProt Q5VT25)

Row | Structure (SMILES) | Kd [1] [µM] | Kd [2] [µM] | Kd [3] [µM] | Kd [4] [µM] | Kd [5] [µM] | Kd [6] [µM] | Kd [7] [µM] | Kd (Ephrin type-B receptor 3) [µM] | Kd [8] [µM] | Kd [9] [µM] | Kd [10] [µM] | Kd [11] [µM] | Kd [12] [µM]
1 | COCC(=O)NC/C=C/c1ccc2ncnc(Nc3ccc(Oc4ccc(C)nc4)c(C)c3)c2c1 [CP-724714] | > 10 | > 10 | > 10 | > 10 | > 10 | > 10 | > 10 | > 10 | > 10 | > 10 | > 10 | > 10 | > 10
2 | CCOc1cc2ncc(C#N)c(Nc3ccc(F)c(Cl)c3)c2cc1NC(=O)/C=C/CN(C)C [PELITINIB] | > 10 | 0.01 | > 10 | > 10 | – | > 10 | > 10 | > 10 | – | > 10 | – | – | > 10
3 | NC(=O)c1ccc(-c2nc(-c3ccc4c(c3)OCO4)c(-c3ccccn3)[nH]2)cc1 [SB-431542] | > 10 | > 10 | > 10 | > 10 | > 10 | > 10 | > 10 | > 10 | > 10 | > 10 | > 10 | > 10 | > 10
4 | CCN1CCN(Cc2ccc(NC(=O)Nc3ccc(Oc4cc(NC)ncn4)cc3)cc2C(F)(F)F)CC1 [AST-487] | – | – | > 10 | – | – | – | – | – | – | – | – | – | –
5 | Nc1nc(Nc2ccc(S(N)(=O)=O)cc2)nn1C(=O)c1c(F)cccc1F [JNJ-7706621] | – | – | – | – | – | > 10 | > 10 | > 10 | – | > 10 | – | – | > 10
6 | Oc1ccc(-c2nc(-c3ccncc3)c(-c3ccc(F)cc3)[nH]2)cc1 [SB-202190] | > 10 | > 10 | > 10 | > 10 | > 10 | > 10 | > 10 | > 10 | > 10 | 6.8 | > 10 | > 10 | > 10
